Experimental data taken from patent US9018257B2, “5-aminolevulinic acid derivatives, methods for their preparation and uses thereof” (Bar Ilan University, priority 2011, dated 2015).

Experiments:
PBGD = PBGD protein expression, Western blot, K562 cells; type: cell-based, human; settings: 0.5 mM, 96 hours, compared to untreated cells or cells treated with ALA
Protocol: (§1) Proteins are quantified and equalized using the Bradford assay (Bio-Rad, CA, USA) and resolved on a 12% polyacrylamide gel. Afterwards, proteins are transferred from the gel onto nitrocellulose membranes (Bio-Rad, CA, USA) using a semi-dry transfer apparatus (Bio-Rad, CA, USA). After blocking the membranes with phosphate-buffered saline+0.2% Tween-20 (PBST) (Sigma-Aldrich, Israel) and 5% skim-milk (BD-Diagnostic Systems, MD, USA), membranes are incubated with primary rabbit anti-human PBGD antibody (a generous gift from flemeBiotech, Sweden), or with rabbit anti-α-Hb (H80) (Santa Cruz Biotechnology, CA, USA), or with HRP-conjugated mouse anti-β-actin antibody (C4) (Santa Cruz Biotechnology, CA, USA) diluted in blocking solution for 1 h in room temperature or for overnight in 4° c., washed with PBST and incubated with secondary antibodies diluted in blocking solution. Immuno-reactive proteins were visualized with enhanced chemiluminiscence detection EZ-ECL kit (Biological Industries, Israel) used as recommended by the manufacturer.
(§2) K562 cells are grown as described above and incubated with 0.5 mM of various compounds for 96 hours. Activity of PBGD is evaluated as described above. Expression level of the PBGD protein is evaluated using Western blot analysis (as detailed above). Expression level of PBGD mRNA are evaluated using Quantitative real-time PCR.

α-globin [1] = assay: α-globin mRNA, quantitative real-time PCR, K562 cells; type: cell-based, human; settings: 0.5 mM, 72 hours (peak)
Protocol: Globin RNAs are quantified by quantitative real time polymerase chain reaction, (qRT-PCR) using SYBR I Green (Applied Biosystems). The cDNA is generated from cell culture or tissues using a PCR purification kit (Qiagen, Valencia, Calif., USA). The qRT-PCR is performed in triplicate and is repeated in at least three separate experiments.
(§3) Total RNA (1 μg) was primed by oligo dT and reverse-transcribed by Verso cDNA kit according to the manufacturer's protocol (Thermo Scientific, West Palm Beach, USA). Quantitative PCR was done on a Step One Plus thermocycler (Applied Byosystems, Van Allen Way, CA, USA). The comparative threshold method was used to calculate the relative gene expression. Values were normalized against glyceraldehyde 3-phosphate dehydrogenase (GAPDH) for the different genes. Real time PCR was performed with Syber Green (Kapa Biosystems, Woburn, Mass., USA) using the following primers: […]
(§4) K562 cells are grown as described above and incubated with 0.5 mM of various compounds for 96 hours. Total heme content in the cells is evaluated. In addition, a globin mRNA and protein expression levels are evaluated using Quantitative real-time PCR and Western blot analysis, respectively.

K562 cells [2] = assay: MTT viability / proliferation of K562 cells; type: cell-based, human; settings: 96 hours
Protocol: Cells are grown in 24 wells plate in a volume of 0.5 mL and treated as indicated for 96 hours. Then, 77 μL of 5 mg/mL MTT (3-[4,5-dimethylthiazol-2-yl]-2,5-diphenyltetrazolium bromide, (Sigma, Israel)) is added to each well for 2 hours. Afterwards, 400 μL of DMF solution (100 gr SDS dissolved in 250 mL dd H2O with 250 mL of DMF) is added for 4 hours. Absorbance is then measured in 570 nm using a Tecan spectrophotometer (NeoTec, Canada).
To evaluate the effect of various tested compounds on cell proliferation, K562 cells were treated for 96 hours and their viability was evaluated by MTT as detailed above.

K562 cells [3] = assay: PpIX synthesis in K562 cells (FACS fluorescence); type: cell-based, human; settings: 0.5 mM, 96 hours, vs 5-ALA alone, BA alone or their mixture
Protocol: Following treatment, cells are harvested, collected by centrifugation, washed twice and resuspended in 0.5 mL with sterile PBS. PpIX fluorescence is measured in 10,000 cells per sample using a FACS (Becton-Dickinson, CA, USA) with an excitation wavelength of 488 nm and emission wavelength>670 nm. Images of the stained cells are examined using a fluorescent microscope (IX70) (Olympus Tokyo, Japan) using an excitation filter of 330-385 nm and barrier filter at 420 nm […] PpIX fluorescence is measured at the FL-3 channel of FACS Calibur. Additionally, pictures of cells are taken using a fluorescent microscope-Nikon TE200-E, to show PpIX fluorescence.

[4] = tested on: porphobilinogen deaminase (PBGD); assay: PBGD enzymatic activity assay in K562 cells; type: cell-based, human; settings: 0.5 mM, 96 hours, vs ALA alone, BA alone or mixture
Protocol: K562 cells (1×10^6) are treated for 96 hours. PBGD activity is assayed as previously described by determining the fluorescence of uroporphyrin formed by the light-induced oxidation of uroporphyrinogen, which is the immediate product of the enzymatic deamination of 4 porphobilinogen molecules. In short, cells are harvested following treatment, and washed twice with PBS. After centrifugation, the pellet was resuspended in 200 μL 50 mM Tris buffer (pH 8.2) with 0.2% Triton. The cells are homogenized on ice and protein levels are quantified using the Bradford method. 400 μg protein was taken out in duplicates for incubation in 300 μL of 50 mM Tris buffer (pH 8.2) containing 0.2% Triton, with final concentration of 85 μM PBG (Sigma, Israel) for 1 hour at 37° C. The reaction is stopped by addition of 1.2 mL 15.6% TCA. […] The samples fluorescence is read using a Synergy spectrofluorometer (BioTek Instruments, VT, USA) with an excitation wavelength of 404 nm, and an emission wavelength of 595 nm. PBGD specific activity is calculated as activity percentage of control.
as §2

Ferrochelatase = Ferrochelatase protein expression in K562 cells; type: cell-based, human; settings: vs ALA, BA or their mixture
Protocol: K562 cells are fixed and stained with primary antibodies anti-αHb or anti-Glycophorin A and are tagged using the compatible secondary antibodies-Alexa 488-conjugated anti-rabbit antibody donkey anti-goat (Invitrogen, Oregon, USA) as recommended by Cell Signaling (MA, USA). Fluorescence is measured in 10,000 cells using FACS with an excitation wavelength of 488 nm and emission wavelength of 530 nm. K562 cells were suspended in paraformaldehyde 4% for 10 min at 37° C., followed by incubation with chilled methanol (final concentration 90%) for 30 min on ice. Cells were washed twice with PBS−/− and blocked with BSA 0.5% in PBS−/− for 10 min at room temperature. Afterwards, the cells were incubated in 50 μL of the primary antibody goat polyclonal Ferrochelatase (Santa Cruz Biotechnology, Santa Cruz, Calif., USA) or goat polyclonal glycophorin A (Santa Cruz Biotechnology, Santa Cruz, Calif., USA) (1:50 in BSA 0.5%) or anti-a Hb for 30 min at room temperature, washed once with PBS−/−, and incubated with a fluorescent donkey anti-goat IgG secondary antibody (1:1000) (Invitrogen, Carlsbad, Calif., USA) for 30 min at room temperature. The cells were washed again with PBS−/− and fluorescence was measured in 10,000 cells per sample using a FACS (Becton-Dickinson, San Jose, Calif., USA) with an excitation wavelength of 488 nm and emission wavelength 530 nm. […]

K562 cells [5] = assay: Intracellular total heme assay in K562 cells; type: cell-based, human; settings: 0.5 mM, 96 hours, vs ALA alone, BA alone or mixture
Protocol: The method for quantitative determination of total heme in cell lysates is performed using hemin as a standard. The “total heme” or “endogenous heme” measured in these assays includes bound and free heme. Following treatments, 100 or 500 μg of cell lysate was added to 100 μL orthotolidine reagent (0.25 gr orthotolidine (Sigma-Aldrich, Israel) dissolved in 80 mL glacial acetic acid (Sigma-Aldrich, Israel) and 10 mL dd H2O). Heme is oxidized to a green product by adding 100 μL of 1.2% H2O2 to the mixture for 10 minutes incubation in the dark. The first oxidation product was further oxidized to a yellow product by adding 0.5 mL of a 1:9 v/v solution of diluted acetic acid. Absorbance of the second product was read at 430 nm using a spectrophotometer (Tecan Trading AG, Switzerland).
as §4

α-globin [6] = assay: α-globin protein expression, Western blot, K562 cells; type: cell-based, human; settings: 0.5 mM, 96 hours, compared to any other treatment
Protocol: as §1, §4

Glycophorin A = Glycophorin A expression by flow cytometry (erythroblast differentiation); type: cell-based, human; settings: K562 cells, 0.5 mM, 96 hours; compared to any other treatment
Protocol: K562 cells are fixed and stained with primary antibodies anti-αHb or anti-Glycophorin A and are tagged using the compatible secondary antibodies-Alexa 488-conjugated anti-rabbit antibody donkey anti-goat (Invitrogen, Oregon, USA) as recommended by Cell Signaling (MA, USA). Fluorescence is measured in 10,000 cells using FACS with an excitation wavelength of 488 nm and emission wavelength of 530 nm. K562 cells were suspended in paraformaldehyde 4% for 10 min at 37° C., followed by incubation with chilled methanol (final concentration 90%) for 30 min on ice. Cells were washed twice with PBS−/− and blocked with BSA 0.5% in PBS−/− for 10 min at room temperature. […] The cells were washed again with PBS−/− and fluorescence was measured in 10,000 cells per sample using a FACS (Becton-Dickinson, San Jose, Calif., USA) with an excitation wavelength of 488 nm and emission wavelength 530 nm.
K562 cells are grown as described above and incubated with 0.5 mM of various compounds for 96 hours. […] Glycophorin A content is measured using immunostaining analyzed by flow cytometry, as detailed above. […]

K562 cells [7] = assay: TEM ultrastructure of K562 cells (cellular maturation); type: cell-based, human; settings: 96 hours
Protocol: Analysis is performed on bone-marrow, spleen and liver, processed as described in [17]. Briefly, cells are treated for 96 hours (hrs), harvested and fixed with Karnovsky fixative. The samples are washed in 0.1 M cacodylate buffer and fixed with 1% OsO4 in 0.1 M sodium cacodylate buffer for 1 hour (h). The samples are then dehydrated in graded ethanol solutions and propylene oxide and embedded in agar mix. Thin sections are cut, stained with uranyl acetate and lead citrate, and observed under a transmission electron microscope.
To evaluate morphologic changes associated with the effect of compound of formula (I-a) (in this example, AlaAcBu) and the ALA+HDACI (in this example, BA) mixture on K562 cells, the cells were examined by immunohystochemical experiments, as shown in FIG. 7.

Balb-c mice = assay: Doxorubicin induced anemia in mice, blood hemoglobin; type: in vivo; settings: male Balb-c mice, Dox 4 mg/kg ip once a week + 50 mg/kg ip compound, day 19; vs Dox alone
Protocol: In an additional setting 8 weeks old male Balb-c mice were divided to two groups, Group 1 received 4 mg/kg ip dose of Doxorubicin (Dox) once a week and Group 2 received the same Doxorubicin treatment and in addition the mice were treated with 50 mg/kg ip dose of the tested compound three times a week. Termination was done on day 19, blood samples were drawn by retro-orbital venipuncture under anesthesia. Hemoglobin levels in heparinized whole blood were determined using Drabkints reagent and standard hemoglobin obtained from Sigma-Aldrich and prepared and stored as instructed by the manufacturer.
In vivo 8 weeks old male Balb-c mice were divided to two groups, Group 1 received 4 mg/kg ip dose of doxorubicin (Dox) once a week and Group 2 received the same Dox treatment and in addition the mice were treated with 50 mg/kg ip dose of compound of formula (I-a) (in this example, 1-(butyryloxy)ethyl-5-amino-4-oxopentanoate, (AlaAcBu)) three times a week. The experiment was terminated on day 19, blood samples were drawn by retro-orbital venipuncture under anesthesia. Hemoglobin levels in heparinized whole blood were determined using Drabkin's reagent and standard hemoglobin obtained from Sigma-Aldrich and prepared and stored as instructed by the manufacturer.

HDAC class I and II = assay: Cellular HDAC activity (Fluor de Lys) in U-251 cells; type: cell-based, human; settings: 2 hours with substrate, read-out: IC50 of HDAC inhibition
Protocol: Inhibition of the activity HDAC class I and II in the cells is performed with the fluorescent kit (AK-503, Biomol, USA). The cells are seeded (10×10^3 cells/well) in 96-well plates (in quadruplicates) in growth medium for 24 hours and then treated. Incubation with the HDAC substrate (Fluor de Lys™) is for 2 hours. The reaction is terminated by the addition of Fluor de Lys™ developer and 2 μM trichostatin A (TSA). The % of inhibition is calculated from the ratio of the fluorescence (measured at 355 nm excitation and 460 nm emission) in the treated compared to the untreated control culture.
In order to test the direct effect of octanoic acid, as well as co-drugs of formula (I-a) (which comprise octanoic acid as the carboxylic acid), on the activity of cellular HDAC, the activity of HDAC is evaluated by incubating U-251 cells for 2 hours with the cell-permeable HDAC fluorometric substrate for HDAC class I and II (Fluor de Lys™), as detailed above.

PBGD mRNA = assay: PBGD mRNA, quantitative real-time PCR, K562 cells; type: cell-based, human; settings: 0.5 mM, after 48-96 hours
Protocol: as §3
Relative quantification of gene expression was determined by the comparative threshold method (ÄCT), as described previously (Livak K J, Schmittgen T D). Analysis of relative gene expression data using real-time quantitative PCR and the 2(−Delta Delta C(T)) Method. Expression of the Gapdh mRNA in each individual sample was used to normalize the dataset.
as §2

SMILES: CCCC(=O)O [BA, butyric acid]
- expression levels of PGBD (protein, Western blot) (PBGD): increased similarly
- α-globin mRNA expression, fold elevation (α-globin [1]): 9.1 fold
- cell viability (MTT, mitochondria activity % of control) (K562 cells [2]): even increased it

SMILES: CCCC(=O)OC(C)OC(=O)CCC(=O)CN (stereo not drawn) [AlaAcBu, 1-(butyryloxy)ethyl 5-amino-4-oxopentanoate]
- intensity of the fluorescence generated by PpIX (K562 cells [3]): substantially higher
- relative activity of PGBD compared to control [4]: higher
- expression levels of PGBD (protein, Western blot) (PBGD): increased similarly
- Ferrochelatase protein expression (Ferrochelatase): significantly higher level
- fold increase in total heme content (K562 cells [5]): higher
- α-globin mRNA expression, fold elevation (α-globin [1]): 11.3 fold
- protein expression levels of α-globin (α-globin [6]): markedly elevated
- relative expression of Glycophorin A (percentage of control) (Glycophorin A): highest increase
- inhibition of cell proliferation (MTT) (K562 cells [2]): 33%
- ultrastructural changes identified by TEM (K562 cells [7]): chromatin condensation, cytosolic hemoglobinization
- hemoglobin level in blood (Balb-c mice): ameliorate the Dox-induced suppression of erythropoiesis

SMILES: CCCCCCCC(=O)O [octanoic acid]
- IC50 (HDAC class I and II): 500 µM

SMILES: NCC(=O)CCC(=O)O [ALA, 5-aminolevulinic acid]
- PBGD mRNA level (PBGD mRNA): significantly decreased
- α-globin mRNA expression, fold elevation (α-globin [1]): 2.2 fold
- cell viability (MTT, mitochondria activity % of control) (K562 cells [2]): did not affect cell viability
